Among the data in patent publication US9149462B2, “Pyrazole compounds acting against allergic, inflammatory and immune disorders” (Glaxo Group Limited, priority 2010, dated 2015) are Clint values, retold here.

Common to all, as to format: in vitro ADME
Series [1] is described as follows: In vitro microsomal clearance, rat (CD).
A short description of series [2]: In vitro microsomal clearance, dog (Beagle).
Series [3] in a line: In vitro microsomal clearance, human.
The nature of series [4]: In vitro microsomal clearance, rat (Wistar Han).

The structures appear in SMILES notation.

`O=C(Nc1cnn(Cc2c(F)cccc2C(F)(F)F)c1)c1c(F)cccc1F` [Example 6, 2,6-Difluoro-N-(1-{[2-fluoro-6-(trifluoromethyl)phenyl]methyl}-1H-pyrazol-4-yl)benzamide]: the Clint in series [1] amounted to 1.67 mL/min g liver; in series [2] it was 0.98 mL/min g liver; in series [3] it was 0.80 mL/min g liver; in series [4] it was 2.05 mL/min g liver.

With `[2H]C([2H])(c1c(F)cccc1C(F)(F)F)n1cc(NC(=O)c2c(F)cccc2F)cn1` [Example 29, 2,6-Difluoro-N-(1-(2-fluoro-6-(trifluoromethyl)-d2-benzyl)-1H-pyrazol-4-yl)benzamide], the Clint in series [1] is listed as 0.95 mL/min g liver; in series [2], 0.80 mL/min g liver; in series [3] it was less than 0.5 mL/min g liver; in series [4], 1.16 mL/min g liver.
